From patent US20240368122A1, “JAK2 INHIBITORS AND METHODS OF USE THEREOF” (RELAY THERAPEUTICS, INC., priority 2021, published 2024)
Where two headings read alike, the source gives them in different places.

Experiments:
[1] = system: TF1 JAK2 V617F STAT5 reporter; assay: Cellular TF1 STAT5 assay (luciferase reporter), JAK2 V617F; assay type: cell-based; settings: read-out: Cell PD TF1 V617F STAT5 (IC50)
Method in brief: (§1)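 Inhibition of JAK2 V617F-mediated STAT3/STAT5 signalling is measured by reporter luminescence in TF1 erythroleukemia cells treated overnight (18-20 h) with a 10-point compound series; DMSO serves as vehicle.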

[2] = target: T1, JAK2 JH2 WT (V536-D812) [W659A, W777A, F794H solubilizing mutations] (Homo sapiens, UniProt O60674, F794H/W659A/W777A); assay: Surface Plasmon Resonance (SPR) binding assay, JAK2 JH2 domain
T1 construct: **JAK2 JH2 WT (V536-D812) [W659A, W777A, F794H solubilizing mutations]; C-thrombin-avi-His6; thrombin cleavage site (C); His6 (C); purchased Biortus
Method in brief: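 Kinetics came from 1:1 fits of single-cycle runs at 20 °C: four 3-fold dilutions from 5 uM for JH1 or 500 nM for JH2, 60 s association, and 300 s or 1200 s dissociation respectively. Protein was freshly captured per compound in the presence of 10 uM stabilizer compound, with running buffer of pH 7.5 HEPES/NaCl/glycerol/DTT plus 2% DMSO.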

[3] = system: TF1 JAK2 V617F STAT3 reporter; assay: Cellular TF1 STAT3 assay (luciferase reporter), JAK2 V617F; assay type: cell-based; settings: read-out: Cell PD-TF1 JAK2 V617F STAT3 (IC50)
Method in brief: as §1

[4] = Homo sapiens, TF-1, TF1 cells, JAK2 V617F

T1 sequence (O60674 536-812 W659A/W777A/F794H): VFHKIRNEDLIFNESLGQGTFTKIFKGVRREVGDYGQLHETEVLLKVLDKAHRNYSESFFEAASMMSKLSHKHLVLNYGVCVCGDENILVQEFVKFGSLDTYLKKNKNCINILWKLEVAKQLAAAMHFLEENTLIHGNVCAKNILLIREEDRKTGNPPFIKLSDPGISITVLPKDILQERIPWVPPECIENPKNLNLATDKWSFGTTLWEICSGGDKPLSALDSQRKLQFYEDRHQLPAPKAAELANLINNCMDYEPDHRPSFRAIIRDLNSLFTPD

IC50 ([1]; TF1 JAK2 V617F)	Kd ([2]; SPR, JAK2 JH2 domain)	IC50 ([3]; TF1 JAK2 V617F)	IC50 [1, 4]	Kd [2]	IC50 [3, 4]	SMILES
5000 to 100000 nM	10 to 50 nM	500 to 5000 nM				CNC(=O)c1nnc(NC(=O)C2CC2)cc1Nc1cccc(-c2cnn(C3(CC#N)CN(Cc4ccccn4)C3)c2)c1OC [Compound 38]
5000 to 100000 nM	50 to 500 nM	5000 to 100000 nM				CNC(=O)c1nnc(NC(=O)C2CC2)cc1Nc1cccc(-c2cc(C3CN(Cc4cnn(C)c4)C3)n(C)n2)c1OC [Compound 187]
5000 to 100000 nM	0.01 to 10 nM	500 to 5000 nM				CNC(=O)c1nnc(NC(=O)C2CC2)cc1Nc1cccc(-c2ccc(C(=O)N(C)CC3Cc4ccccc4CO3)nc2)c1OC (stereo not drawn) [Compound 54]
			50 to 500 nM	0.01 to 10 nM	50 to 500 nM	CNC(=O)c1nnc(NC(=O)C2CC2)cc1Nc1cccc(-c2cnn(C3CN(Cc4cccc(C#CC5CC5)n4)C3)c2)c1OC [Compound 241]
500 to 5000 nM	0.01 to 10 nM	500 to 5000 nM				CNC(=O)c1nnc(NC(=O)C2CC2)cc1Nc1cccc(-c2cnc(C(=O)N(C)Cc3ccccn3)nc2)c1OC [Compound 13]
			50 to 500 nM	0.01 to 10 nM	50 to 500 nM	CNC(=O)c1nnc(NC(=O)C2CC2)cc1Nc1cccc(-c2cnn(C3CN(Cc4cccc(C5(O)COC5)n4)C3)c2)c1OC [Compound 382]
			50 to 500 nM	0.01 to 10 nM	50 to 500 nM	COc1c(Nc2cc(NC(=O)C3CC3)nnc2-c2ncc[nH]2)cccc1-c1ccc(C(=O)N(C)Cc2cc(C#N)ccn2)nc1 [Compound 366]
5000 to 100000 nM	0.01 to 10 nM	500 to 5000 nM				CNC(=O)c1nnc(NC(=O)C2CC2)cc1Nc1cccc(-c2cnn(C3CN(CC4(C#N)CC4)C3)c2)c1OC [Compound 121]
5000 to 100000 nM	0.01 to 10 nM	500 to 5000 nM				CNC(=O)c1nnc(NC(=O)C2CC2)cc1Nc1cccc(-c2cnc(C(=O)NCc3cccn(C)c3=O)cn2)c1OC [Compound 7]
500 to 5000 nM	0.01 to 10 nM	500 to 5000 nM				CNC(=O)c1nnc(NC(=O)C2CC2)cc1Nc1cccc(-c2ccc(C(=O)N(C)Cc3cnn(C)c3C)nc2)c1OC [Compound 166]
50 to 500 nM	0.01 to 10 nM	50 to 500 nM				CNC(=O)c1nnc(NC(=O)C2CC2)cc1Nc1cc(F)cc(-c2ccc(C(=O)N(C)Cc3cc(C#N)ccn3)nc2)c1OC [Compound 112]
500 to 5000 nM	0.01 to 10 nM	500 to 5000 nM				CNC(=O)c1nnc(NC(=O)C2CC2)cc1Nc1cccc(-c2cnn(C3CN(C(C)c4ccccn4)C3)c2)c1OC (racemic) [Compound 127]
			50 to 500 nM	0.01 to 10 nM	50 to 500 nM	CNC(=O)c1nnc(NC(=O)C2CC2)cc1Nc1cccc(-c2cnn(C3CN(Cc4cc([N+](=O)[O-])ccn4)C3)c2)c1OC [Compound 295]
50 to 500 nM	0.01 to 10 nM	500 to 5000 nM				CNC(=O)c1nnc(NC(=O)C2CC2)cc1Nc1cccc(-c2ccc(C(=O)N(C)Cc3cccn(C)c3=O)nc2)c1OC [Compound 23]
500 to 5000 nM	0.01 to 10 nM	5000 to 100000 nM				CNC(=O)c1nnc(NC(=O)C2CC2)cc1Nc1cccc(-c2ccc(C3CN(Cc4ccccn4)C3)nc2)c1OC [Compound 182]
			5000 to 100000 nM	50 to 500 nM	500 to 5000 nM	CNC(=O)c1nnc(NC(=O)C2CC2)cc1Nc1cccc(-c2ccc(C3CN(Cc4cn(C)nc4C#N)C3)nc2)c1OC [Compound 293]
500 to 5000 nM	0.01 to 10 nM	500 to 5000 nM				CNC(=O)c1nnc(NC(=O)C2CC2)cc1Nc1cccc(-c2ccc(C(=O)N(C)Cc3cn(C)cn3)nc2)c1OC [Compound 86]
500 to 5000 nM	0.01 to 10 nM	500 to 5000 nM				CNC(=O)c1nnc(NC(=O)C2CC2)cc1Nc1cccc(-c2ccc(C(=O)N(C)[C@H](C)c3nc(C)no3)nc2)c1OC (single isomer, unassigned) [Compound 65]
			50 to 500 nM	0.01 to 10 nM	50 to 500 nM	CNC(=O)c1nnc(NC(=O)C2CC2)cc1Nc1cccc(-c2cnn([C@H]3CCN(Cc4cccc(C#N)n4)C3)c2)c1OC [Compound 319]
			5000 to 100000 nM	50 to 500 nM	5000 to 100000 nM	CNC(=O)c1nnc(NC(=O)C2CC2)cc1Nc1cccc(-c2ccc(C3CN(Cc4cnn(C)c4)C3)nc2)c1OC [Compound 264]
500 to 5000 nM	0.01 to 10 nM	50 to 500 nM				CNC(=O)c1nnc(NC(=O)C2CC2)cc1Nc1cccc(-c2cnn(C3CN([C@@H](C)c4ccccn4)C3)c2)c1OC (single isomer, unassigned) [Compound 162]

IC50 ([1]; TF1 JAK2 V617F)	Kd ([2]; SPR, JAK2 JH2 domain)	IC50 ([3]; TF1 JAK2 V617F)	IC50 [1, 4]	Kd [2]	IC50 [3, 4]	SMILES
			500 to 5000 nM	0.01 to 10 nM	500 to 5000 nM	CNC(=O)c1nnc(NC(=O)C2CC2)cc1Nc1cccc(-c2cn(C3CN(Cc4cccc(Cl)n4)[C@@H]3C)nn2)c1OC (stereo in doubt) [Compound 239]
			500 to 5000 nM	0.01 to 10 nM	500 to 5000 nM	CNC(=O)c1nnc(NC(=O)C2CC2)cc1Nc1cccc(-c2cnn(C3CN(Cc4ncccc4C(=O)N(C)C)C3)c2)c1OC [Compound 299]
500 to 5000 nM	0.01 to 10 nM	500 to 5000 nM				CNC(=O)c1cnc(NC(=O)C2CC2)cc1Nc1cccc(-c2cnn(C3CN(Cc4ccccn4)C3)c2)c1OC [Compound 190]
50 to 500 nM	0.01 to 10 nM	50 to 500 nM				CNC(=O)c1nnc(NC(=O)C2CC2)cc1Nc1cccc(-c2ccc(C(=O)N(C)Cc3cc(C#N)n(C)n3)nc2)c1OC [Compound 71]
			500 to 5000 nM	0.01 to 10 nM	500 to 5000 nM	CNC(=O)c1nnc(NC(=O)C2CC2)cc1Nc1cccc(-c2cnn(C3CN(C(C)c4cccc(C#N)n4)C3)c2)c1OC (racemic) [Compound 227]
500 to 5000 nM	0.01 to 10 nM	500 to 5000 nM				CNC(=O)c1nnc(NC(=O)C2CC2)cc1Nc1cccc(-c2ccc(C(=O)N(C)Cc3nccs3)nc2)c1OC [Compound 58]
			500 to 5000 nM	0.01 to 10 nM	500 to 5000 nM	CNC(=O)c1nnc(NC(=O)C2CC2)cc1Nc1cccc(-c2ccc(C(=O)N(C)Cc3cnn(C4CC4)c3C)nc2)c1OC [Compound 284]
			50 to 500 nM	0.01 to 10 nM	50 to 500 nM	C=Cc1cccc(CN2CC(n3cc(-c4cccc(Nc5cc(NC(=O)C6CC6)nnc5C(=O)NC)c4OC)cn3)C2)n1 [Compound 368]
50 to 500 nM	0.01 to 10 nM	50 to 500 nM				CNC(=O)c1nnc(NC(=O)C2CC2)cc1Nc1cccc(-c2ccc(C(=O)N(C)Cc3cc(S(C)(=O)=O)ccn3)nc2)c1OC [Compound 72]
			5000 to 100000 nM	0.01 to 10 nM	5000 to 100000 nM	CNC(=O)c1nnc(NC(=O)C2CC2)cc1Nc1cccc(-c2cnc(C3CN(Cc4ccccn4)C3)nc2)c1OC [Compound 325]
500 to 5000 nM	0.01 to 10 nM	500 to 5000 nM				CNC(=O)c1nnc(NC(=O)C2CC2)cc1Nc1cccc(-c2cnn(C3CN(Cc4ncccc4F)C3)c2)c1OC [Compound 69]
			50 to 500 nM	0.01 to 10 nM	50 to 500 nM	CNC(=O)c1nnc(NC(=O)C2CC2)cc1Nc1cccc(-c2cnn(C3CN(Cc4cccc(OC(F)F)n4)C3)c2)c1OC [Compound 243]
			500 to 5000 nM	50 to 500 nM	5000 to 100000 nM	CNC(=O)c1nnc(NC(=O)C2CC2)cc1Nc1cccc(-c2ccc(C3CN(Cc4cccc(C#N)n4)C3)c(OC)c2)c1OC [Compound 361]
500 to 5000 nM	0.01 to 10 nM	500 to 5000 nM				CNC(=O)c1nnc(NC(=O)C2CC2)cc1Nc1cccc(-c2cnn(C3CN(Cc4nnc(C)s4)C3)c2)c1OC [Compound 144]
			500 to 5000 nM	0.01 to 10 nM	500 to 5000 nM	CNC(=O)c1nnc(NC(=O)C2CC2)cc1Nc1cccc(-c2cnn([C@@H]3CCN(Cc4ccccn4)C3)c2)c1OC (single isomer, unassigned) [Compound 334]
500 to 5000 nM	0.01 to 10 nM	500 to 5000 nM				CNC(=O)c1nnc(NC(=O)C2CC2)cc1Nc1cccc(-c2ccc(C(=O)N(C)Cc3ccn(C)n3)c(F)c2)c1OC [Compound 132]
			500 to 5000 nM	0.01 to 10 nM	500 to 5000 nM	COc1c(Nc2cc(NC(=O)C3CC3)nnc2-c2ncc[nH]2)ccc(C)c1-c1ccc(C(=O)N(C)Cc2cn(C)nc2C)nc1 [Compound 376]
5000 to 100000 nM	0.01 to 10 nM	5000 to 100000 nM				CNC(=O)c1nnc(NC(=O)C2CC2)cc1Nc1cccc(-c2ccc(C(=O)N(C)C(C)c3nc(C)no3)nc2)c1OC (stereo not drawn) [Compound 50]
			50 to 500 nM	0.01 to 10 nM	50 to 500 nM	CNC(=O)c1nnc(NC(=O)C2CC2)cc1Nc1cccc(-c2ccc(C(=O)N(C)Cc3ncc(COC)s3)nc2)c1OC [Compound 244]
			50 to 500 nM	0.01 to 10 nM	50 to 500 nM	CNC(=O)c1nnc(NC(=O)C2CC2)cc1Nc1cccc(-c2cnn(C3CN(Cc4cccc5ccnn45)C3)c2)c1OC [Compound 287]
			50 to 500 nM	0.01 to 10 nM	50 to 500 nM	CNC(=O)c1nnc(NC(=O)C2CC2)cc1Nc1cccc(-c2ccc(C(=O)N(C)Cc3cn(C)nc3C)cc2)c1OC [Compound 221]
